Experimental data published in PubChem BioAssay AID2060489 (Molecular Pharmacology Branch, DTP, NCI, 2025).

System: 922993-354-T-J3-PDC complex spheroids, viability
Assay: Anticancer human tumor 922993-354-T-J3-PDC patient-derived endometrial carcinoma cell line growth inhibition [GQUAD]
Settings: for IC50: curve of first compound; for viability, T/C: stronger effect = lower value
How it was run: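 Multi-cell-type spheroids of tumor cells with HUVEC and mesenchymal stem cells, treated with drug combinations. Concentrations descend in half-log steps from near clinical Cmax, or from 10 microM where Cmax is unknown; viability read-out.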

[1] = second compound 0.0316 µM, first compound 0.0316 µM
[2] = second compound 0.0316 µM, first compound 0.1 µM
[3] = second compound 0.0316 µM, first compound 0.316 µM
[4] = second compound 0.0316 µM, first compound 1 µM
[5] = second compound 0.0316 µM, first compound 3.16 µM
[6] = second compound 0.0316 µM, first compound 10 µM
[7] = second compound 0.1 µM, first compound 0.0316 µM
[8] = second compound 0.1 µM, first compound 0.1 µM
[9] = second compound 0.1 µM, first compound 0.316 µM
[10] = second compound 0.1 µM, first compound 1 µM
[11] = second compound 0.1 µM, first compound 3.16 µM
[12] = second compound 0.1 µM, first compound 10 µM
[13] = second compound 0.316 µM, first compound 0.0316 µM
[14] = second compound 0.316 µM, first compound 0.1 µM
[15] = second compound 0.316 µM, first compound 0.316 µM
[16] = second compound 0.316 µM, first compound 1 µM
[17] = second compound 0.316 µM, first compound 3.16 µM
[18] = second compound 0.316 µM, first compound 10 µM
[19] = second compound 1 µM, first compound 0.0316 µM
[20] = second compound 1 µM, first compound 0.1 µM
[21] = second compound 1 µM, first compound 0.316 µM
[22] = second compound 1 µM, first compound 1 µM
[23] = second compound 1 µM, first compound 3.16 µM
[24] = second compound 1 µM, first compound 10 µM
[25] = second compound 3.16 µM, first compound 0.0316 µM
[26] = second compound 3.16 µM, first compound 0.1 µM
[27] = second compound 3.16 µM, first compound 0.316 µM
[28] = second compound 3.16 µM, first compound 1 µM
[29] = second compound 3.16 µM, first compound 3.16 µM
[30] = second compound 3.16 µM, first compound 10 µM
[31] = second compound 10 µM, first compound 0.0316 µM
[32] = second compound 10 µM, first compound 0.1 µM
[33] = second compound 10 µM, first compound 0.316 µM
[34] = second compound 10 µM, first compound 1 µM
[35] = second compound 10 µM, first compound 3.16 µM
[36] = second compound 10 µM, first compound 10 µM
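Also: spheroids exposed to compounds for seven days.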
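For viability, T/C in this document: 100% = DMSO vehicle control viability.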

CC1COCCN1c1cc(-c2ccnn2C)c2ccnc(-c3ccn[nH]3)c2n1 (stereo not drawn) + Cc1[nH]c2ccc(F)cc2c1-c1nc2c3cccnc3c3ncccc3c2[nH]1
IC50 (second compound 0.0316 µM): 188 nM | IC50 (second compound 0.1 µM): 234 nM | IC50 (second compound 0.316 µM): 280 nM | IC50 (second compound 1 µM): 243 nM | IC50 (second compound 3.16 µM): 188 nM | IC50 (second compound 10 µM): 216 nM | viability, T/C [1]: 84% | viability, T/C [2]: 59.3% | viability, T/C [3]: 44.3% | viability, T/C [4]: 23.6% | viability, T/C [5]: 21% | viability, T/C [6]: 16.5% | viability, T/C [7]: 82% | viability, T/C [8]: 66% | viability, T/C [9]: 45.9% | viability, T/C [10]: 25.4% | viability, T/C [11]: 20.9% | viability, T/C [12]: 21.8% | viability, T/C [13]: 108% | viability, T/C [14]: 76.3% | viability, T/C [15]: 50.5% | viability, T/C [16]: 22.7% | viability, T/C [17]: 17.5% | viability, T/C [18]: 16.5% | viability, T/C [19]: 93.2% | viability, T/C [20]: 67% | viability, T/C [21]: 49% | viability, T/C [22]: 21.5% | viability, T/C [23]: 20.1% | viability, T/C [24]: 15.1% | viability, T/C [25]: 98.2% | viability, T/C [26]: 65.6% | viability, T/C [27]: 37.6% | viability, T/C [28]: 25% | viability, T/C [29]: 27.2% | viability, T/C [30]: 21.4% | viability, T/C [31]: 104% | viability, T/C [32]: 70.7% | viability, T/C [33]: 39.4% | viability, T/C [34]: 24.8% | viability, T/C [35]: 26.2% | viability, T/C [36]: 16.6%

CC1COCCN1c1cc(C2(O)CC3CCC(C2)O3)c2cnn(-c3ccn[nH]3)c2n1 (stereo not drawn) + Cc1[nH]c2ccc(F)cc2c1-c1nc2c3cccnc3c3ncccc3c2[nH]1
IC50 (second compound 0.0316 µM): 332 nM | IC50 (second compound 0.1 µM): 519 nM | IC50 (second compound 0.316 µM): 655 nM | IC50 (second compound 1 µM): 355 nM | IC50 (second compound 3.16 µM): 622 nM | IC50 (second compound 10 µM): 435 nM | viability, T/C [1]: 87.8% | viability, T/C [2]: 67.6% | viability, T/C [3]: 50.8% | viability, T/C [4]: 37.5% | viability, T/C [5]: 19.9% | viability, T/C [6]: 15.1% | viability, T/C [7]: 85.7% | viability, T/C [8]: 84.5% | viability, T/C [9]: 62.2% | viability, T/C [10]: 33.3% | viability, T/C [11]: 21.2% | viability, T/C [12]: 18.5% | viability, T/C [13]: 85.4% | viability, T/C [14]: 94.3% | viability, T/C [15]: 69.9% | viability, T/C [16]: 37.2% | viability, T/C [17]: 22% | viability, T/C [18]: 13.3% | viability, T/C [19]: 84.4% | viability, T/C [20]: 96.7% | viability, T/C [21]: 52.9% | viability, T/C [22]: 30.7% | viability, T/C [23]: 24.4% | viability, T/C [24]: 17.7% | viability, T/C [25]: 86.4% | viability, T/C [26]: 70.5% | viability, T/C [27]: 68.6% | viability, T/C [28]: 37.1% | viability, T/C [29]: 27.4% | viability, T/C [30]: 19.6% | viability, T/C [31]: 89.2% | viability, T/C [32]: 77.5% | viability, T/C [33]: 53.3% | viability, T/C [34]: 37.6% | viability, T/C [35]: 23.6% | viability, T/C [36]: 18.2%

CC1COCCN1c1cc(C2(S(C)(=N)=O)CC2)nc(-c2ccnc3[nH]ccc23)n1 (stereo not drawn) + Cc1[nH]c2ccc(F)cc2c1-c1nc2c3cccnc3c3ncccc3c2[nH]1
IC50 (second compound 0.0316 µM): > 10000 nM | IC50 (second compound 0.1 µM): > 10000 nM | IC50 (second compound 0.316 µM): > 10000 nM | IC50 (second compound 1 µM): > 10000 nM | IC50 (second compound 3.16 µM): > 10000 nM | IC50 (second compound 10 µM): > 10000 nM | viability, T/C [1]: 103% | viability, T/C [2]: 96.9% | viability, T/C [3]: 110% | viability, T/C [4]: 83.9% | viability, T/C [5]: 114% | viability, T/C [6]: 60.6% | viability, T/C [7]: 110% | viability, T/C [8]: 107% | viability, T/C [9]: 138% | viability, T/C [10]: 132% | viability, T/C [11]: 106% | viability, T/C [12]: 67.5% | viability, T/C [13]: 135% | viability, T/C [14]: 117% | viability, T/C [15]: 109% | viability, T/C [16]: 124% | viability, T/C [17]: 79.6% | viability, T/C [18]: 67% | viability, T/C [19]: 118% | viability, T/C [20]: 106% | viability, T/C [21]: 109% | viability, T/C [22]: 106% | viability, T/C [23]: 106% | viability, T/C [24]: 80.1% | viability, T/C [25]: 92.3% | viability, T/C [26]: 124% | viability, T/C [27]: 87.2% | viability, T/C [28]: 104% | viability, T/C [29]: 88.8% | viability, T/C [30]: 81.4% | viability, T/C [31]: 138% | viability, T/C [32]: 104% | viability, T/C [33]: 128% | viability, T/C [34]: 96.3% | viability, T/C [35]: 101% | viability, T/C [36]: 89%

COc1ccc([C@@H](O)c2cc(-c3ncnc4cc(N5CCOCC5)ccc34)c(F)cc2Cl)nn1 + Cc1[nH]c2ccc(F)cc2c1-c1nc2c3cccnc3c3ncccc3c2[nH]1
IC50 (second compound 0.0316 µM): 9140 nM | IC50 (second compound 0.1 µM): > 10000 nM | IC50 (second compound 0.316 µM): 8510 nM | IC50 (second compound 1 µM): > 10000 nM | IC50 (second compound 3.16 µM): > 10000 nM | IC50 (second compound 10 µM): > 10000 nM | viability, T/C [1]: 107% | viability, T/C [2]: 112% | viability, T/C [3]: 92.9% | viability, T/C [4]: 90% | viability, T/C [5]: 95.8% | viability, T/C [6]: 45.7% | viability, T/C [7]: 123% | viability, T/C [8]: 115% | viability, T/C [9]: 114% | viability, T/C [10]: 94.9% | viability, T/C [11]: 115% | viability, T/C [12]: 58.1% | viability, T/C [13]: 106% | viability, T/C [14]: 116% | viability, T/C [15]: 94% | viability, T/C [16]: 100% | viability, T/C [17]: 86.8% | viability, T/C [18]: 43.4% | viability, T/C [19]: 114% | viability, T/C [20]: 108% | viability, T/C [21]: 72.2% | viability, T/C [22]: 88.6% | viability, T/C [23]: 97.1% | viability, T/C [24]: 68.2% | viability, T/C [25]: 101% | viability, T/C [26]: 101% | viability, T/C [27]: 93.9% | viability, T/C [28]: 103% | viability, T/C [29]: 88.9% | viability, T/C [30]: 66.1% | viability, T/C [31]: 84.6% | viability, T/C [32]: 88.6% | viability, T/C [33]: 109% | viability, T/C [34]: 90.8% | viability, T/C [35]: 108% | viability, T/C [36]: 61.6%
